For assay [1], the target named is TRAF2 and NCK-interacting protein kinase (Homo sapiens) (UniProt Q9UKE5).
Assay [2] concerns the target Calcium/calmodulin-dependent protein kinase type II subunit delta (Homo sapiens) (UniProt Q13557).
Assay [3] has as its target Calcium/calmodulin-dependent protein kinase kinase 2 (Homo sapiens, UniProt Q96RR4).
Assay [4] deals with Ribosomal protein S6 kinase alpha-3 (Homo sapiens) (UniProt P51812).
Assay [5] addresses T1, Serine/threonine-protein kinase VRK1 (Homo sapiens) (UniProt Q99986).
T1 sequence (whole entry): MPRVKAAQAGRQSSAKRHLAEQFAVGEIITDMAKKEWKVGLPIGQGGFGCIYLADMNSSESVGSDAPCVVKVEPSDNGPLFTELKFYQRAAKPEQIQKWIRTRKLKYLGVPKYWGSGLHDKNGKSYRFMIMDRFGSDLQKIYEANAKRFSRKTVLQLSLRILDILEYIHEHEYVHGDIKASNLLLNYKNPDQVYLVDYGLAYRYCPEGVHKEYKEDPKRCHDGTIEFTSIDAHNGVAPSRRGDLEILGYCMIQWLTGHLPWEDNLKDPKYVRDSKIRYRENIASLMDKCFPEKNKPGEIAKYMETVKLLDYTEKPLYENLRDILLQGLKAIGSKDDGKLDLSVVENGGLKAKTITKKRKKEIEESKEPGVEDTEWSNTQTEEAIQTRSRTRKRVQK

The target of assay [6] is Serine/threonine-protein kinase 26 (Homo sapiens) (UniProt Q9P289).
For assay [7], the target named is Cyclin-dependent kinase 6 (Homo sapiens) (UniProt Q00534).
Cyclin-dependent kinase 6 (Homo sapiens), sequence (Q00534 whole entry): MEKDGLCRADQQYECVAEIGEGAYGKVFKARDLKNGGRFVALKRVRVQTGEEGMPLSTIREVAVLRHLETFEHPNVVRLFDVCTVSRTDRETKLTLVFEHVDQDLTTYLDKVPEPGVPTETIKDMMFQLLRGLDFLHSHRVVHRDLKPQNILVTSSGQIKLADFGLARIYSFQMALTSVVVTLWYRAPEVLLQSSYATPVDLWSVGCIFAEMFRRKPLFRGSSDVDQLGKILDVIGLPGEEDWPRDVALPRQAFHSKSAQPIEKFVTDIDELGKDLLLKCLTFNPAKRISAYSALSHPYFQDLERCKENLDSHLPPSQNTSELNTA
For assay [8], the target named is Glycogen synthase kinase-3 beta (Homo sapiens, UniProt P49841).
Glycogen synthase kinase-3 beta, sequence (P49841 whole entry, looked up): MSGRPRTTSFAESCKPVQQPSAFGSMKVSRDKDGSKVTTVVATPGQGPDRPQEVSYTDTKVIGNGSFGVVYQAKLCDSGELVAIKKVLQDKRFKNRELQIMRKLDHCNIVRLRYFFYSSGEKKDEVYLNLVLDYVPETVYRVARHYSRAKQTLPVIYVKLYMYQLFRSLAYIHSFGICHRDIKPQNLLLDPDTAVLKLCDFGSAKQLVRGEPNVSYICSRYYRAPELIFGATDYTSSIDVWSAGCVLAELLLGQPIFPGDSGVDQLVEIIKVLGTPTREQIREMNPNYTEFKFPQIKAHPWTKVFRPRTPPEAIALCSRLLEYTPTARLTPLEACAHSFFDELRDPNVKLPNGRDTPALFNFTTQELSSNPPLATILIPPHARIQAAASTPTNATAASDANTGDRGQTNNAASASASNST
Assay [9] has as its target Serine/threonine-protein kinase 10 (Homo sapiens) (UniProt O94804).
For assay [10], the target named is Dual specificity protein kinase CLK1 (Homo sapiens) (UniProt P49759).
Assay [11] deals with T2, Serine/threonine-protein kinase 17A (Homo sapiens) (UniProt Q9UEE5).
T2 sequence (whole entry): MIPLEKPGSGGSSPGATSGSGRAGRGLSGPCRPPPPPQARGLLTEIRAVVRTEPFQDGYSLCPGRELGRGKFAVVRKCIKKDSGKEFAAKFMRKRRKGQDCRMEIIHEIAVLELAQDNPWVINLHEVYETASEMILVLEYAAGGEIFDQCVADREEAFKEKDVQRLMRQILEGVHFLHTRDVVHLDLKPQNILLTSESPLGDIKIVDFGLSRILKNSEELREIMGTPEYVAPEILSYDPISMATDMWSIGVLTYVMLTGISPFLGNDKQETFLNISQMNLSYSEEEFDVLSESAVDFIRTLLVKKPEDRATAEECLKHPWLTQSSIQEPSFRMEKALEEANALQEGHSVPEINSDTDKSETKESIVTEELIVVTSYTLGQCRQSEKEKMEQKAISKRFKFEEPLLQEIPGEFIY

The target of assay [12] is Serine/threonine-protein kinase PAK 4 (Homo sapiens) (UniProt O96013).
Serine/threonine-protein kinase PAK 4 (Homo sapiens), sequence (O96013 whole entry, looked up): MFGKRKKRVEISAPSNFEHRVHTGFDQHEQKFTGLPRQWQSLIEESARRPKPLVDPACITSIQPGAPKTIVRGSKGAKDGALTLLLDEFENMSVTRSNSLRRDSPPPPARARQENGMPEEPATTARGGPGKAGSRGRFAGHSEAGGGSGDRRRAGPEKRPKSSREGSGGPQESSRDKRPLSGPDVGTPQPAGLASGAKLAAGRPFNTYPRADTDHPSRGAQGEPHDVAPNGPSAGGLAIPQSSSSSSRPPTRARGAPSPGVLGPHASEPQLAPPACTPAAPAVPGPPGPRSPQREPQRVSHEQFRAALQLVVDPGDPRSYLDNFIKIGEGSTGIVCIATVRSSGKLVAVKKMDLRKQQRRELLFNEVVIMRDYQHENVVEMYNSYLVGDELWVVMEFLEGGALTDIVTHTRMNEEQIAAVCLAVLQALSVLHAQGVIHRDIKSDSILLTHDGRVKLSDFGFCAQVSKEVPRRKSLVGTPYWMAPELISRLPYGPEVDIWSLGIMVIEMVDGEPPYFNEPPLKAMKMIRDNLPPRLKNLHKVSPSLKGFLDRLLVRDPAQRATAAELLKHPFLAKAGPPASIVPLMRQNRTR
Assay [13] deals with T3, Myotonin-protein kinase (Homo sapiens) (UniProt Q09013).
T3 sequence (whole entry): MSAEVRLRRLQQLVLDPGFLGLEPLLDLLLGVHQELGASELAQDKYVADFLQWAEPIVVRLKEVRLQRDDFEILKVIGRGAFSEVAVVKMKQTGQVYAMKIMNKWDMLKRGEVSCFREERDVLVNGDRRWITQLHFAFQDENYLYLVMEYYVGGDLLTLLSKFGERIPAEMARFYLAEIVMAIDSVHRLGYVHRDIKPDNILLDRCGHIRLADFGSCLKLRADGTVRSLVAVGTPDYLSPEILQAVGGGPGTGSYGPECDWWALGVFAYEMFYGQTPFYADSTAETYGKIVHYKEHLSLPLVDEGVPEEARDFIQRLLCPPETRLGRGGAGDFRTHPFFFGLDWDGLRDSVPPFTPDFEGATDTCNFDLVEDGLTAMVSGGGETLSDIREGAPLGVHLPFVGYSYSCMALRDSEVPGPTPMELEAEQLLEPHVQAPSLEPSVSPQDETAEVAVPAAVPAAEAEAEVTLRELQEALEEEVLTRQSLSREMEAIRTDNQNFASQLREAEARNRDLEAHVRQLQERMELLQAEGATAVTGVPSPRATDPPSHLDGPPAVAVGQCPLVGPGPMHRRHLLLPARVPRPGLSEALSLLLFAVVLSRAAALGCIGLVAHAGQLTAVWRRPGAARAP

Assay [14] addresses Calcium/calmodulin-dependent protein kinase type II subunit beta (Homo sapiens) (UniProt Q13554).
For assay [15], the target named is T4, Lymphokine-activated killer T-cell-originated protein kinase (Homo sapiens) (UniProt Q96KB5).
T4 sequence (whole entry): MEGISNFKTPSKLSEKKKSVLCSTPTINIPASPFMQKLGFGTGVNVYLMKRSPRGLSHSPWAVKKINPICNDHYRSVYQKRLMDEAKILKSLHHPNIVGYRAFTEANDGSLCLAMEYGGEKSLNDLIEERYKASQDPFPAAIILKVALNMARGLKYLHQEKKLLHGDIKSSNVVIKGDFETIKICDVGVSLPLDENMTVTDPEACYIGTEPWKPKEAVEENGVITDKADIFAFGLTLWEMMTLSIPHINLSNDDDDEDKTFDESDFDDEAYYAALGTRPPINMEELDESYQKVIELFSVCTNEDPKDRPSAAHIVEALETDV

For orientation: ΔTm means the change in melting temperature against a reference sample.

Serine/threonine-protein kinase 10 (Homo sapiens), sequence (O94804 whole entry, looked up): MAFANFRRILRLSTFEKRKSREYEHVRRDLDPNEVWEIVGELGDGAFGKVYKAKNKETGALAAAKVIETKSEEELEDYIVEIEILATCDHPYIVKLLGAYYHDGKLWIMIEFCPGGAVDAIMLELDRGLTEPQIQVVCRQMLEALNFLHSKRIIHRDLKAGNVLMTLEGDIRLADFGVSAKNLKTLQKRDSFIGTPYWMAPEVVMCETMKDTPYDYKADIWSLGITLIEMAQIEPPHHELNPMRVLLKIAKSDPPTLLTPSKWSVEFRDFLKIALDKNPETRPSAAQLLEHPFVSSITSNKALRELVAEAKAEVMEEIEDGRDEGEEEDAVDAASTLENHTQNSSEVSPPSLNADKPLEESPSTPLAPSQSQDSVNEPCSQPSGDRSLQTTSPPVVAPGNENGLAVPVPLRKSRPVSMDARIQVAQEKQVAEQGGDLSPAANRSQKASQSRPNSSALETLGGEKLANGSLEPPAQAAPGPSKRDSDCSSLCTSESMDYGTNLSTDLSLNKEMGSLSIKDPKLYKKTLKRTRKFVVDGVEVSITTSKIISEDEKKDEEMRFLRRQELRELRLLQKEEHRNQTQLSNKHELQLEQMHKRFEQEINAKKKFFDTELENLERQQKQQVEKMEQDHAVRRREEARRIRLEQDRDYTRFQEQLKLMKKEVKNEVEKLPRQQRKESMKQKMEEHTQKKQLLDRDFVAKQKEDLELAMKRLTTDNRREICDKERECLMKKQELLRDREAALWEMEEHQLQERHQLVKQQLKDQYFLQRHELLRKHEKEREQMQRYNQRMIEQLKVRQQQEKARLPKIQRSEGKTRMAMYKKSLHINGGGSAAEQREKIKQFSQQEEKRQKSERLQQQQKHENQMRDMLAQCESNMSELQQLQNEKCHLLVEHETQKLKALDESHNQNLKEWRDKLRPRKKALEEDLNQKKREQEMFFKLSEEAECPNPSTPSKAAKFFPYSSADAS
Calcium/calmodulin-dependent protein kinase type II subunit beta (Homo sapiens), sequence (Q13554 whole entry): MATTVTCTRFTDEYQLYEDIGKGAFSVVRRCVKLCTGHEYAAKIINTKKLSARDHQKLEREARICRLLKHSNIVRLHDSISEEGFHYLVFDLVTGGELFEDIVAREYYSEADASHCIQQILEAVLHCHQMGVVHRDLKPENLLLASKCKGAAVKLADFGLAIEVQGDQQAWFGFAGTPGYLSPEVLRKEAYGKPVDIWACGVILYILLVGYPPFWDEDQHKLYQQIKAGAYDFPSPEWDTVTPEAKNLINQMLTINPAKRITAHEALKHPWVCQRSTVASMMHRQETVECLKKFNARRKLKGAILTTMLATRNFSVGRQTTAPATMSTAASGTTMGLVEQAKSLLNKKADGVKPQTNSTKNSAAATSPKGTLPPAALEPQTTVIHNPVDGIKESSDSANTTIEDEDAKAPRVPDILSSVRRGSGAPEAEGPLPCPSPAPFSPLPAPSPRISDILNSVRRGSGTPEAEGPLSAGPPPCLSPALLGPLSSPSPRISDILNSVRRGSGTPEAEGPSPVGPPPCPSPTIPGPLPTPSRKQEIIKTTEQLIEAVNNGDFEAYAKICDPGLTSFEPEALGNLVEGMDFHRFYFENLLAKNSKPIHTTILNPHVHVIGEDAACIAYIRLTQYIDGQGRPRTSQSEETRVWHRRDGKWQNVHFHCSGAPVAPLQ
Calcium/calmodulin-dependent protein kinase type II subunit delta (Homo sapiens), sequence (Q13557 whole entry): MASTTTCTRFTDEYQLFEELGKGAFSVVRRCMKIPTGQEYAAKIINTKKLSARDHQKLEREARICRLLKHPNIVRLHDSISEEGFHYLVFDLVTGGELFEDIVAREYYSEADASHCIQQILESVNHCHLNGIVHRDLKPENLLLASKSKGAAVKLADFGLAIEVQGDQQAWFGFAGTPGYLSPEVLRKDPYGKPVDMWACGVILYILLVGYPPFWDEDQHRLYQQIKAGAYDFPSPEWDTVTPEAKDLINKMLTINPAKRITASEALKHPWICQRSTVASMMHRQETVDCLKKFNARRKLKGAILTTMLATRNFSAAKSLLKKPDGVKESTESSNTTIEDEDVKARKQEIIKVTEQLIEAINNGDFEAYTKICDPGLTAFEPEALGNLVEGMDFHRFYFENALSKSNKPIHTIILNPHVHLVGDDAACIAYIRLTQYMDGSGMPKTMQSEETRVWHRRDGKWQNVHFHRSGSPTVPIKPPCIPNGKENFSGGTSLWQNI
TRAF2 and NCK-interacting protein kinase (Homo sapiens), sequence (Q9UKE5 whole entry, looked up): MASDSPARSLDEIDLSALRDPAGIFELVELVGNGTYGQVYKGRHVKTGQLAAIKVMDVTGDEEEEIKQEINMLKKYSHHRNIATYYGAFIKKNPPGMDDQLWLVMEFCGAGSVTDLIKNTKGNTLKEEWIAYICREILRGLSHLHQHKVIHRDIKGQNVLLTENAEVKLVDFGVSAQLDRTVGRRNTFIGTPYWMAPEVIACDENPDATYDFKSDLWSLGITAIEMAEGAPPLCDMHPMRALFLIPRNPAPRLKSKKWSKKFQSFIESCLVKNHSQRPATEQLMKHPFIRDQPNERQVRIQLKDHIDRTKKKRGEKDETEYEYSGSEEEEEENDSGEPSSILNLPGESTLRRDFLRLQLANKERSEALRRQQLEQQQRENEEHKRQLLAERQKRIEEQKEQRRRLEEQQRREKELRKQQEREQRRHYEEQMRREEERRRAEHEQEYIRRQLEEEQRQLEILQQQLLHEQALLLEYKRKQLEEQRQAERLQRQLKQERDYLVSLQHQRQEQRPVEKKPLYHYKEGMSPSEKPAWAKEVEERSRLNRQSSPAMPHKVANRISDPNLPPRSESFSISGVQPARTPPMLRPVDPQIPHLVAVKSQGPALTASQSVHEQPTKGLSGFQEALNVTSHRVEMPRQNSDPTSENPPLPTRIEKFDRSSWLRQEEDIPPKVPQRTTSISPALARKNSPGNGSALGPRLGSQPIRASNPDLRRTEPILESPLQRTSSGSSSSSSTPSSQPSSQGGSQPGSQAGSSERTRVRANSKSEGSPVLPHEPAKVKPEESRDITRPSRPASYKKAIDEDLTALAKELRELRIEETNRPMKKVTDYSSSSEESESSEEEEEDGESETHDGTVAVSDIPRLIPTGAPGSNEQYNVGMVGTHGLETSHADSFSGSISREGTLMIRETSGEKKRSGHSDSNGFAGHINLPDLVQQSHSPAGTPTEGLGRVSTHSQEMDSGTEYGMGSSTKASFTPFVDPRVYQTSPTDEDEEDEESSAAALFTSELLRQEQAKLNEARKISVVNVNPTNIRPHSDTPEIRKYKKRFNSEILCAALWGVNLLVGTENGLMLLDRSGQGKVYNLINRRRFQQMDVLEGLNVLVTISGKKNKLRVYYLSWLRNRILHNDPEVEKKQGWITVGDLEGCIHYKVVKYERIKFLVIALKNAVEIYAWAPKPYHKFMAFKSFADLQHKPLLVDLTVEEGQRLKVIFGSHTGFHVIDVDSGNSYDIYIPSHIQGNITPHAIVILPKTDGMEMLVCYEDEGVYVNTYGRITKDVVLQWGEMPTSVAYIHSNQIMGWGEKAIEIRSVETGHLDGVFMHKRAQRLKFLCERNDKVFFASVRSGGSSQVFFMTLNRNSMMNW

With `Nc1n[nH]c2nnc(-c3c(-c4ccccc4)nn4ccccc34)cc12`, the ΔTm in [1] was 1.1 °C; in assay [2], -0.6 °C; in assay [3], 0.3 °C; in assay [4] it was 3 °C; in assay [5] it was -0.3 °C; in [6] it was -0.1 °C. Also, the ΔTm in [7] is 1.7 °C; in assay [8], 5 °C; in assay [9], -0.2 °C; in assay [10], 0.7 °C; in [11] it was 0.8 °C; in assay [12] it was -0.1 °C. Moreover, the ΔTm in assay [13] is 2.3 °C; in [14] it was -0.6 °C; in assay [15] it was 0.2 °C.

Regarding `Cn1cc(/C=C2/C(=O)Nc3ccc(S(N)(=O)=O)cc32)c2ccccc21`, the ΔTm in assay [1] is 1.3 °C; in assay [2] it was 2.5 °C; in [3], 3.5 °C; in [4], 7.8 °C; in [5], 1.6 °C; in assay [6], -0.2 °C. For the same molecule, the ΔTm in [7] is -0.2 °C; in [8], 11.6 °C; in assay [9], 6.3 °C; in assay [10] it was 4.7 °C; in [11], 6.1 °C; in assay [12] it was 3.7 °C. The ΔTm in assay [13] is 3.7 °C; in [14], 0.1 °C; in assay [15], -1.2 °C.

With `C#Cc1cccc(Nc2ncnc3cc(OCCOC)c(OCCOC)cc23)c1`, the ΔTm in assay [1] was -0.2 °C; in assay [2], -0.3 °C; in assay [3] it was 0.1 °C; in assay [4] it was -0.2 °C; in [5] it was 0.3 °C; in [6] it was 0.6 °C. Also, the ΔTm is 0.5 °C in assay [7]; -0.1 °C in [8]; 0 °C in assay [9]; -0.5 °C in [10]; 0.3 °C in [11]; 1.6 °C in [12]. The ΔTm in [13] worked out at 3.4 °C; in [14], 0.5 °C; in [15] it was 0.7 °C.

The values are drawn from ChEMBL document CHEMBL1145498, “A systematic interaction map of validated kinase inhibitors with Ser/Thr kinases” (Proc Natl Acad Sci U S A, 2007).
